Values joined by “and” are separate entries in the source; they are usually repeats but may differ in a detail not shown here. Identical values can stand only once.
Key:
bone marrow [1] = experiment: Bone marrow smear differential, cells/femur and myeloid:erythroid ratio, Example 1; format: in vivo, mice
Method: Prepared slides were stained and evaluated microscopically.
Statistical tests were performed at the α level of 0.01. Listing of the individual data and summary statistics (mean, standard error and sample size) was provided. The average body weight changes from study day 3 for study days 4-10 and 11-17 and average food consumption for study days 4-10 and 11-17 was analyzed. […] Specifically, the interaction of AZT and procysteine® was evaluated.
Microscopic analysis of the bone marrow smears was conducted by evaluating 500 cells for the differential analysis and 500 cells for the myeloid: erythroid ratio.

bone marrow [2] = experiment: Bone marrow smear differential and M:E ratio, Example 2; format: in vivo, mice
Method: (§1) One femur from each mouse was removed and transversely halved. One half was preserved in 10% neutral buffered formalin, then submitted to a histology department for further preparation. The other half of the femur was used to prepare bone marrow smears. […] Prepared slides for bone sections and bone marrow smears were stained (Diff-Quik®) and the smears and sections were evaluated microscopically.
(§2) The difference between the means for groups 3 and 5 and the difference between the means for groups 4 and 6 were compared to the control delta. The significance of the two individual comparisons is designated in the summary statistics listing. Pairwise comparisons of the mean response for group 2 to group 1, group 3 to group 1, group 4 to group 1, group 5 to group 2, and group 6 to group 2 were also performed. The significance of these five comparisons was designated in the summary statistics listing. In total, the significance of seven statistical comparisons (two on the mean differences and five on the mean responses) are indicated in the summary statistics listing.
(§3) Statistical analysis of bone marrow data included an analysis of the results from bone marrow smears (differential count and M:E ratio), analysis of the histopathologic characterization data for bone marrow cellularity, analysis of the bone marrow cellularity on the day of necropsy, analysis of the results of the hematopoietic colony forming assays (based on 10^4 mononuclear bone marrow (cells/dish), and analysis of the number of colony forming units represented per femur (cellularity data multiplied by colony forming data).

femoral bone marrow = experiment: Histopathology of femoral bone marrow sections, Example 2; format: in vivo, mice
Method: (§4) Animals were weighed (not fasted) on study day 59 and euthanized, and specimens were collected as described.
as §1

peripheral blood [3] = tested on: peripheral blood; set-up: species or system mice; details: mouse, in vivo
Method: An eight week evaluation of the potential for oral Procysteine® to modulate AZT-induced hematologic toxicity in mice was conducted. As noted above, AZT-related bone marrow toxicity, and resultant bone marrow hypoplasia, limits the utility of this drug.
as §4
On study day 59, surviving mice were deeply anesthetized with methoxyflurane in a bell jar. While the mice were deeply anesthetized, blood for hematological analysis was obtained via cardiac puncture using needles/syringes coated with K3 EDTA. While deeply anesthetized, the mice were then euthanized by exsanguination followed by cervical dislocation. Then, bone marrow smears and aspirates were prepared and liver and kidneys were collected as subsequently described in this report.
The following hematology assays were conducted:
Statistical tests were performed at α≈0.01. Listings of the individual data were provided. Summary statistics by sex (mean, standard error and sample size) were provided for the responses for each group and for the differences between groups 1 and 2, between groups 3 and 5 and between groups 4 and 6. The average across weekly intervals for body weight change from study day 3 was analyzed. The average across weekly intervals for food consumption starting with the interval between days 3-4 were analyzed. The model included factors for block, sex and group effects and the group by sex interaction. the interactions with block effect were assumed negligible. Data for both sexes were included in one model to get an overall estimate of the residual standard deviation used in the statistical comparisons.
as §2

[4] = GSH concentrations in blood, liver and kidney by HPLC, Example 2; format: in vivo, mice
bone marrow [5] = experiment: Nucleated cells per femur (bone marrow cells before plating), Example 1; format: in vivo, mice; details: for Nucleated Cells/Femur: M,F,combined in turn
Method: (§5) Populations of bone marrow colony forming cells were evaluated. Bone marrow was collected and the stem cell assay conducted, as follows: one femur per mouse was cut at the distal and proximal ends. Using a syringe and 25 gauge needle, 5 mL of IMDM media was flushed through the femur into a collection tube (2.5 mL flushed into one end, then 2.5 ml into the other end). The tube was washed using Iscove's Modified Dulbecco's Media containing 20% fetal bovine serum and the cell concentration was adjusted to the desired count for the colony assay.
(§6) Terminal blood was evaluated for hematological effects, and bone marrow smears and aspirates were counted and 10^4 nucleated cells of the aspirate were cultured 14 days to assess hematopoietic progenitor cells.

peripheral blood [6] = tested on: peripheral blood; set-up: species or system mice; details: mouse, in vivo; remark: listed apart in the source
Method: On study day 17, the animals were anesthetized with methoxyflurane (in a bell jar). When deeply anesthetized, blood was obtained by cardiac puncture and transferred for hematological analysis into tubes containing an EDTA suspension.
The following hematologic assays were conducted.
Statistical tests were performed at the α level of 0.01. Listing of the individual data and summary statistics (mean, standard error and sample size) was provided. The average body weight changes from study day 3 for study days 4-10 and 11-17 and average food consumption for study days 4-10 and 11-17 was analyzed.

[7] = Histopathology of adrenal, skin and tail, Example 2; set-up: species or system mice; details: mouse, in vivo
[8] = tested on: bone marrow colony forming cells; experiment: Hematopoietic progenitor colony forming assay of bone marrow, Example 1; set-up: species or system mice; details: mouse, in vivo
Method: as §5
In triplicate, the marrow cells were put into a mixture of methylcellulose and plated into 35 mm diameter dishes. The dishes were incubated approximately 2 weeks (37° C., 5% CO2, 100% relative humidity) then manually scored under a microscope for myeloid, erythroid, and mixed colonies.
as §6

bone marrow [9] = experiment: Nucleated cells/femur and colony forming cells, Example 2; format: in vivo, mice
Method: Bone marrow colony-forming cells were evaluated. During necropsy, one femur per mouse was cut at the distal and proximal ends. Using a syringe and 25 G needle, 5 ml of Iscove's Modified Dulbecco's Media (IMDM) was flushed through the femur into a collection tube (2.5 ml flushed into one end, then 2.5 ml into the other end). The tube was washed using IMDM containing 20% fetal bovine serum and the cell concentration was adjusted to the desired count for the colony assay. In triplicate, the marrow cells were put into a mixture of methylcellulose, stem cell factor, interleukin-3, granulocyte macrophage--colony stimulating factor, and erythropoietin, and plated into 35 mm diameter dishes. The dishes were incubated 10 days (37° C., 5% CO2, 100% relative humidity) then manually scored under a light microscope for myeloid (white), erythroid (red), and mixed colonies.
as §3

[10] = 8 weeks, no AZT, F (N 9), M (N 10) in turn
[11] = AZT 50 mg/kg/day, M,F,combined in turn
[12] = AZT 500 mg/kg/day, M,F,combined in turn
[13] = 8 weeks, AZT 50/day, F, M in turn
[14] = 8 weeks, AZT 500/day, F, M in turn

Structure (SMILES): O=C1N[C@H](C(=O)O)CS1 [Procysteine]
- Bone Marrow-Miscellaneous Cells % (bone marrow [1]; no AZT, M,F,combined in turn): 1.0% and 1.2% and 1.1%
- Lymphocyte (bone marrow [1]; no AZT, M,F,combined in turn): 0.130 /Femur × 10**6 and 0.141 /Femur × 10**6 and 0.135 /Femur × 10**6
- Myeloid:Erythroid Ratio (bone marrow [1]; no AZT, M,F,combined in turn): 1.59 and 1.58
- erythroid series cells (bone marrow [2]; female mice): only a mild decrease
- myeloid series cells (bone marrow [2]; female mice): no meaningful alterations
- bone marrow status (bone marrow [2]; male mice): normal bone marrows
- Bizarre Mitotic Figures (number of mice) (femoral bone marrow; [10]): 0
- Erythroid Hypoplasia (number of mice) (femoral bone marrow; [10]): 0
- General Hypoplasia (number of mice) (femoral bone marrow; [10]): 0
- Hemosiderin (number of mice) (femoral bone marrow; [10]): 0
- Normal bone marrow (number of mice) (femoral bone marrow; [10]): 9 and 10
- AZT-induced bone marrow pathology / hypoplasia (femoral bone marrow; eight weeks of cotreatment): significantly ameliorated
- HCT (peripheral blood [3]): 39.6%
- MCV (peripheral blood [3]): 51 fL
- Retic (peripheral blood [3]): 1.4%
- WBC (peripheral blood [3]): 2.1 10^3 /μl
- blood GSH concentrations vs AZT-only treated groups ([4]; at 0, 50, and 500 mg/kg/day AZT): higher
- Nucleated Cells/Femur (bone marrow [5]; no AZT): 12.8 ×10**6 and 12.0 ×10**6 and 12.4 ×10**6

Structure (SMILES): Cc1cn([C@H]2C[C@H](N=[N+]=[N-])[C@@H](CO)O2)c(=O)[nH]c1=O [AZT]
- mean corpuscular volume, mean corpuscular hemoglobin, incidence of polychromasia, anisocytosis, macrocytes and Howell-Jolly bodies (peripheral blood [6]): increases
- total hemoglobin concentration, hematocrit and erythrocyte counts (peripheral blood [6]): significant (p<0.01) decreases
- Bone Marrow-Miscellaneous Cells % (bone marrow [1]; [11]): 0.4% and 0.5%
- Lymphocyte (bone marrow [1]; [11]): 0.047 /Femur × 10**6 and 0.046 /Femur × 10**6
- Bone Marrow-Miscellaneous Cells % (bone marrow [1]; [12]): 0.2%
- Lymphocyte (bone marrow [1]; [12]): 0.022 /Femur × 10**6 and 0.015 /Femur × 10**6 and 0.019 /Femur × 10**6
- metarubricytes (nonproliferating) (bone marrow [1]; bone marrow smears): marked reduction
- rubriblasts (bone marrow [1]; bone marrow smears): mild reduction
- total count of erythroid series cells (bone marrow [1]; bone marrow smears): reduced total count
- nonproliferating compartment of the myeloid series (bone marrow [1]; mouse, in vivo): reduction
- proliferating compartment of the myeloid series (bone marrow [1]; mouse, in vivo): significantly increased
- erythroid cells in bone marrow smears (bone marrow [2]; male and female): significant reduction
- metarubricytes (nonproliferating) and rubriblasts (bone marrow [2]; male and female): significantly reduced
- total proliferating myeloid and total myeloid cells (bone marrow [2]; male and female): significantly increased
- Bizarre Mitotic Figures (number of mice) (femoral bone marrow; [13]): 0
- Erythroid Hypoplasia (number of mice) (femoral bone marrow; [13]): 10 and 6
- General Hypoplasia (number of mice) (femoral bone marrow; [13]): 1
- Hemosiderin (number of mice) (femoral bone marrow; [13]): 0
- Erythroid Hypoplasia (number of mice) (femoral bone marrow; [14]): 9 and 8
- Hemosiderin (number of mice) (femoral bone marrow; [14]): 4 and 2
- erythroid or general bone-marrow-hypoplasia (femoral bone marrow; both doses, both sexes): 36/39
- erythroid hypoplasia (femoral bone marrow; female mice): 19/20
- erythroid hypoplasia (femoral bone marrow; male mice): 14/19
- HCT (peripheral blood [3]): significant decrease
- MCV and MCH (peripheral blood [3]): Significant increases
- RBC and HGB (peripheral blood [3]): Significant decreases
- platelets (peripheral blood [3]): significant increases
- epidermal melanin-like pigment of tail [7]: accumulation of epidermal melanin-like pigment
- Blood GSH ([4]; mouse, in vivo): significantly decreased with increasing AZT dose
- total colonies and colony forming units-granulocyte/macrophage [8]: significant induction
- total number of colonies (bone marrow [9]; both high dose AZT groups): significant increases
- Nucleated Cells/Femur (bone marrow [9]; males and females, high dose AZT ± Procysteine, vs controls): significantly decreased
- Nucleated Cells/Femur (bone marrow [5]; AZT 50 mg/kg/day): 11.7 ×10**6 and 9.9 ×10**6 and 10.8 ×10**6
- Nucleated Cells/Femur (bone marrow [5]; AZT 500 mg/kg/day): 10.5 ×10**6 and 8.8 ×10**6 and 9.6 ×10**6
- nucleated cells of bone marrow aspirates (bone marrow [5]; AZT and high-dose AZT/Procysteine, vs controls): significant reduction

Reference: US5430045A, “Method of reducing or preventing bone marrow hypoplasia” (Free Radical Sciences, Inc., priority 1993, dated 1995)
